The text below walks through data of patent publication US12441768B2, “Compositions and methods for treating endometriosis” (EndoMet Biosciences, Inc., priority 2018, dated 2025).

Like-named read-outs stand apart in the source and are kept apart here. Where a SMILES comes first, the peptide text is derived from it.

The target in data set [1] is Wnt-responsive promoter (TCF/LEF). The data set can be described thus: Wnt-dependent luciferase reporter assay. It counts as cell-based, murine. The method, boiled down: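 EC50 (uM) derived from inhibition of luminescence in Wnt3a-stimulated murine 3T3 cells expressing luciferase under a TCF/LEF promoter, with peptides added across a concentration range and vehicle as control.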
For orientation: Reporter assays use an easily measured gene product as a stand-in for the process of interest.

Data set [2] is described as follows: in vitro. The settings on record: % Viability non-Wnt responsive cells.
For data set [3], the target named is T1, β-catenin (Homo sapiens, UniProt P35222).
T1 sequence (P35222 1-781): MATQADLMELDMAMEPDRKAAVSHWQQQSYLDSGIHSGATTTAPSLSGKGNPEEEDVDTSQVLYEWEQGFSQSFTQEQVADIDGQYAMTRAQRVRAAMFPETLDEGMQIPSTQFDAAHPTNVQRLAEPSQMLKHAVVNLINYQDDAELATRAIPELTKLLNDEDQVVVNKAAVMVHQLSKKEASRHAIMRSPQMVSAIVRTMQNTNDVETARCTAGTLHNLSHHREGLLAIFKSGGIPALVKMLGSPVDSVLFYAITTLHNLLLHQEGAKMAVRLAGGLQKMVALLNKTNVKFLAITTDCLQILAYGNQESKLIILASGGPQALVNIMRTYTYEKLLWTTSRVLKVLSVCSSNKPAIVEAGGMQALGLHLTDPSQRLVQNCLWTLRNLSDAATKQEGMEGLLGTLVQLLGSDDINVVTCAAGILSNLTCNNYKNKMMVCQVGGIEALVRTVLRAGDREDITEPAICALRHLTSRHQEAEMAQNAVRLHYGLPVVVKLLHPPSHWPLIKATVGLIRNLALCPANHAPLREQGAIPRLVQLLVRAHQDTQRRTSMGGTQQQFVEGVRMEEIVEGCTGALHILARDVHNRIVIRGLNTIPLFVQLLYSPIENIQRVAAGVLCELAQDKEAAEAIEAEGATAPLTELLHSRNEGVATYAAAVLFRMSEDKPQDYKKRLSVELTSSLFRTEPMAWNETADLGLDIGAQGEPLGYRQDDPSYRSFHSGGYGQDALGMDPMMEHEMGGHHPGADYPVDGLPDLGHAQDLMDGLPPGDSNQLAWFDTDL
The data set can be described thus: KD50 measurement using competitive fluorescence polarization (FP) with labelled TCF4. It counts as binding. The following applies: fluorescence polarization, β-catenin; for Kd: read-out: β-Cat FP KD. The method, boiled down:
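Competitive FP in which unlabelled inhibitor (10 nM to 30 uM dilution series) displaces 5 nM labelled TCF4 from 100 nM β-catenin, room temperature. Read-out ex 470 nm, em 520 nm; experiment repeated three times.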
For orientation: Polarisation of emitted light reports the rotation of a fluorescent probe.

For data set [4] the following is noted: % Viability non-Wnt responsive cells.

In general, EC50 refers to the concentration needed to bring the measured effect to its halfway point. Usually viability stands for a read-out of living cells in per cent, often relative to untreated cells. `CC[C@H](C)[C@H](NC(=O)[C@H](CC(C)C)NC(=O)[C@H](Cc1ccccc1)NC(=O)[C@H](Cc1c[nH]c2ccccc12)NC(=O)[C@H](CCSC)NC(=O)[C@H](CCCNC(=N)N)NC(=O)[C@@H](NC(=O)[C@@H](N)CCSC)[C@@H](C)CC)C(=O)N[C@@H](CO)C(=O)N[C@@H](Cc1ccccc1)C(=O)N[C@@H](Cc1c[nH]c2ccccc12)C(=O)NCC(=O)O` [compound 15] (H-MIRMWFLISFWG-OH) showed an EC50 in data set [1] of less than 7.5 µM. In addition, the viability in data set [2] was found to be 103%.
Regarding `CC[C@H](C)[C@H](NC(=O)[C@H](CO)NC(=O)[C@H](CCC(=O)O)NC(=O)[C@H](Cc1c[nH]c2ccccc12)NC(=O)[C@@H](N)CCSC)C(=O)N[C@@H](CC(C)C)C(=O)N[C@@H](CC(=O)O)C(=O)N[C@@H](CCC(=O)O)C(=O)N[C@@H](Cc1c[nH]cn1)C(=O)N[C@H](C(=O)N[C@@H](CCC(N)=O)C(=O)N[C@@H](CCCNC(=N)N)C(=O)N[C@H](C(=O)N[C@@H](Cc1c[nH]c2ccccc12)C(=O)NCC(=O)O)C(C)C)C(C)C` [compound 22] (H-MWESILDEHVQRVWG-OH), in data set [1], the concentration for a half-maximal effect (EC50) was greater than 30 µM. Also, in data set [2], the viability is 99.6%.
On the same counts, the results for `CC[C@H](C)[C@@H]1NC(=O)[C@H](CC(C)C)NC(=O)[C@H](CC(C)C)NC(=O)[C@H](Cc2c[nH]c3ccccc23)NC(=O)[C@H](CCSC)NC(=O)[C@H](CCCNC(=N)N)NC(=O)[C@H](CO)NC(=O)[C@H](CCSC)NC(=O)[C@@H](N)CCCCNC(=O)CNC(=O)[C@H](Cc2c[nH]c3ccccc23)NC(=O)[C@H](Cc2ccccc2)NC(=O)[C@H](CO)NC1=O` [compound 25] (HELM PEPTIDE1{K.M.S.R.M.W.L.L.I.S.F.W.G}$PEPTIDE1,PEPTIDE1,1:R3-13:R2$$$V2.0; bridges inferred) are 7.5 to 15 µM and 97%.
The compound `CC[C@H](C)[C@@H]1NC(=O)[C@H](CC(C)C)NC(=O)[C@H](Cc2ccccc2)NC(=O)[C@H](Cc2c[nH]c3ccccc23)NC(=O)[C@H](CCSC)NC(=O)[C@@H](N)CCCCNC(=O)CNC(=O)[C@H](Cc2c[nH]c3ccccc23)NC(=O)[C@H](Cc2ccccc2)NC(=O)[C@H](CO)NC1=O` [compound 26] (HELM PEPTIDE1{K.M.W.F.L.I.S.F.W.G}$PEPTIDE1,PEPTIDE1,1:R3-10:R2$$$V2.0; bridges inferred) displayed an EC50 in data set [1] of 7.5 to 15 µM. The viability in data set [2] is 88%.
Take `CC[C@H](C)[C@@H]1NC(=O)[C@H](CC(C)C)NC(=O)[C@H](Cc2ccc(O)cc2)NC(=O)[C@H](Cc2c[nH]c3ccccc23)NC(=O)[C@H](CCSC)NC(=O)[C@H](CCCNC(=N)N)NC(=O)[C@H](CO)NC(=O)[C@H](CCSC)NC(=O)[C@@H](N)CCCCNC(=O)CNC(=O)[C@H](Cc2c[nH]c3ccccc23)NC(=O)[C@H](Cc2ccccc2)NC(=O)[C@H](CO)NC1=O` [compound 27] (HELM PEPTIDE1{K.M.S.R.M.W.Y.L.I.S.F.W.G}$PEPTIDE1,PEPTIDE1,1:R3-13:R2$$$V2.0; bridges inferred): the EC50 in data set [1] is greater than 30 µM. Moreover, the viability in data set [2] is 96%.
As a reminder, the Kd is the equilibrium constant for the complex coming apart. In data set [1], `CC[C@H](C)[C@H](NC(=O)[C@H](CC(C)C)NC(=O)[C@H](Cc1ccccc1)NC(=O)[C@H](Cc1c[nH]c2ccccc12)NC(=O)[C@@H](N)CCSC)C(=O)N[C@@H](C)C(=O)N[C@@H](C)C(=O)N[C@@H](Cc1c[nH]c2ccccc12)C(=O)NCC(=O)O` [compound 212] (H-MWFLIAAWG-OH) had a concentration giving a half-maximal response (EC50) of less than 7.5 µM. In data set [3], the “β-Cat FP Hill slope” value came out at 1.05 and the Kd is 400 to 1000 nM. For the same compound, the viability in data set [4] is 99.3%.
On the same counts, the results for `CC[C@H](C)[C@H](NC(=O)[C@H](CC(C)C)NC(=O)[C@H](Cc1ccccc1)NC(=O)[C@H](Cc1c[nH]c2ccccc12)NC(=O)[C@@H](N)CCSC)C(=O)N[C@@H](CSC)C(=O)N[C@@H](Cc1ccccc1)C(=O)N[C@@H](Cc1c[nH]c2ccccc12)C(=O)NCC(=O)O` [compound 214] (H-MWFLIC(Me)FWG-OH) are less than 7.5 µM, 0.7, 400 to 1000 nM and 102%.
In the same order, the values of `CC[C@H](C)[C@H](NC(=O)[C@H](CC(C)C)NC(=O)[C@H](CC1CCCCC1)NC(=O)[C@H](Cc1c[nH]c2ccccc12)NC(=O)[C@H](CCSC)NC(C)=O)C(=O)N[C@@H](CO)C(=O)N[C@@H](Cc1ccccc1)C(=O)N[C@@H](Cc1c[nH]c2ccccc12)C(=O)NCC(=O)O` [compound 216] (HELM PEPTIDE1{[ac].M.W.[Cha].L.I.S.F.W.G}$$$$V2.0) are less than 7.5 µM, 1.35, 400 to 1000 nM and 100%.
In the same order, the values of `CC[C@H](C)[C@H](NC(=O)[C@H](CC(C)C)NC(=O)[C@@H](NC(=O)[C@H](Cc1c[nH]c2ccccc12)NC(=O)[C@H](CCSC)NC(C)=O)C1CCCCC1)C(=O)N[C@@H](CO)C(=O)N[C@@H](Cc1ccccc1)C(=O)N[C@@H](Cc1c[nH]c2ccccc12)C(=O)NCC(=O)O` [compound 217] (HELM PEPTIDE1{[ac].M.W.[O=C([C@@H](N[*:1])C1CCCCC1)[*:2]].L.I.S.F.W.G}$$$$V2.0) are less than 7.5 µM, 1.47, less than 400 nM and 87.9%.
As to `CC[C@H](C)[C@H](NC(=O)[C@H](CC(C)C)NC(=O)[C@H](CC(C)C)NC(=O)[C@H](Cc1c[nH]c2ccccc12)NC(=O)[C@H](CCSC)NC(C)=O)C(=O)N[C@@H](CO)C(=O)N[C@@H](Cc1ccccc1)C(=O)N[C@@H](Cc1c[nH]c2ccccc12)C(=O)NCC(=O)O` [compound 218] (Ac-MWLLISFWG-OH), in data set [1], the EC50 is less than 7.5 µM. In data set [3], the “β-Cat FP Hill slope” value was 1.85 and the Kd is less than 400 nM. Also, in data set [4], the viability is 90.8%.
Take `CC[C@H](C)[C@H](NC(=O)[C@H](CC(C)C)NC(=O)[C@H](Cc1ccccc1)NC(=O)[C@H](Cc1c[nH]c2ccccc12)NC(=O)[C@H](CCSC)NC(C)=O)C(=O)N[C@@H](CO)C(=O)N[C@@H](Cc1ccccc1)C(=O)N[C@@H](Cc1c[nH]c2ccccc12)C(=O)NCC(=O)O` [compound 219] (Ac-MWFLISFWG-OH): in data set [1], the concentration for a half-maximal effect (EC50) is less than 7.5 µM. In data set [3], the “β-Cat FP Hill slope” value is given as 0.86 and the Kd lay within 400 to 1000 nM. Also, the viability in data set [4] came to 90.6%.
On the same counts, the results for `CC[C@H](C)[C@H](NC(=O)[C@H](CC(C)C)NC(=O)[C@H](Cc1ccccc1)NC(=O)[C@H](Cc1c[nH]c2ccccc12)NC(C)=O)C(=O)N[C@@H](CO)C(=O)N[C@@H](Cc1ccccc1)C(=O)N[C@@H](Cc1c[nH]c2ccccc12)C(=O)NCC(=O)O` [compound 220] (Ac-WFLISFWG-OH) are less than 7.5 µM, 2.99, 400 to 1000 nM and 93.2%.
The compound `CC[C@H](C)[C@H](NC(=O)[C@H](CC(C)C)NC(=O)[C@@H](NC(=O)[C@H](Cc1c[nH]c2ccccc12)NC(=O)[C@H](CCSC)NC(C)=O)[C@@H](C)CC)C(=O)N[C@@H](CO)C(=O)N[C@@H](Cc1ccccc1)C(=O)N[C@@H](Cc1c[nH]c2ccccc12)C(=O)NCC(=O)OC` [compound 222] (HELM PEPTIDE1{[ac].M.W.I.L.I.S.F.W.G.[CO[*:1]]}$$$$V2.0) gave a concentration for a half-maximal effect (EC50) in data set [1] of 7.5 to 15 µM. Besides, in data set [3], the “β-Cat FP Hill slope” value is on record as 1.56 and the Kd was in the range of 1000 to 10000 nM. Further, the viability in data set [4] amounted to 98.2%.
In data set [1], `CC[C@H](C)[C@H](NC(=O)[C@H](CC(C)C)NC(=O)[C@@H](NC(=O)[C@H](Cc1c[nH]c2ccccc12)NC(=O)[C@H](CCSC)NCc1ccccc1)[C@@H](C)CC)C(=O)N[C@@H](CO)C(=O)N[C@@H](Cc1ccccc1)C(=O)N[C@@H](Cc1c[nH]c2ccccc12)C(=O)NCC(=O)O` [compound 223] (HELM PEPTIDE1{[CSCC[C@H](NCc1ccccc1)C(=O)[*:2]].W.I.L.I.S.F.W.G}$$$$V2.0) returned an EC50 of less than 7.5 µM. The “β-Cat FP Hill slope” value in data set [3] was 0.7. Further, the viability in data set [4] stood at 101%.
As to `CC[C@H](C)[C@H](NC(=O)[C@H](CC(C)C)NC(=O)[C@@H](NC(=O)[C@H](Cc1c[nH]c2ccccc12)NC(=O)[C@H](CCSC)NC(=O)C(C)(C)C)[C@@H](C)CC)C(=O)N[C@@H](CO)C(=O)N[C@@H](Cc1ccccc1)C(=O)N[C@@H](Cc1c[nH]c2ccccc12)C(=O)NCC(=O)O` [compound 225] (HELM PEPTIDE1{[CC(C)(C)C(=O)[*:2]].M.W.I.L.I.S.F.W.G}$$$$V2.0), the EC50 in data set [1] is less than 7.5 µM. Further, in data set [3], the “β-Cat FP Hill slope” value is 0.7 and the Kd lay within 400 to 1000 nM. Moreover, the viability in data set [4] came to 101%.
